The values that follow come from patent US9156848B2, “Treating diabetes with dipeptidyl peptidase-IV inhibitors” (Merck Sharp & Dohme Corp., priority 2012, dated 2015).

Molecules are shown by their SMILES.

Test [1] addresses dipeptidyl peptidase-IV enzyme (DPP-4) (Homo sapiens (Human), UniProt P27487). The test is described as follows: continuous fluorometric assay with substrate Gly-Pro-AMC (DPP-4 inhibition). The test is classed as biochemical. Particulars: soluble human DPP-4, 50 μM Gly-Pro-AMC, pH 7.5, room temperature.
Protocol: Inhibition constants are determined as follows. A continuous fluorometric assay is employed with the substrate Gly-Pro-AMC, which is cleaved by DPP-4 to release the fluorescent AMC leaving group. […] A typical reaction contains approximately 50 pM enzyme, 50 μM Gly-Pro-AMC, and buffer (100 mM HEPES, pH 7.5, 0.1 mg/ml BSA) in a total reaction volume of 100 μL. Liberation of AMC is monitored continuously in a 96-well plate fluorometer using an excitation wavelength of 360 nm and an emission wavelength of 460 nm. Under these conditions, approximately 0.8 μM AMC is produced in 30 minutes at 25 degrees C. The enzyme used in these studies was soluble (transmembrane domain and cytoplasmic extension excluded) human protein produced in a baculovirus expression system (Bac-To-Bac, Gibco BRL). […] To measure the dissociation constants for compounds, solutions of inhibitor in DMSO were added to reactions containing enzyme and substrate (final DMSO concentration is 1%). All experiments were conducted at room temperature using the standard reaction conditions described above. To determine the dissociation constants (Ki), reaction rates were fit by non-linear regression to the Michaelis-Menton equation for competitive inhibition.
A further test has as its target DPP-4 (Homo sapiens (Human), UniProt P27487). As to conditions: cited from earlier work.
Another test has as its system cardiac allograft. As to conditions: rats; survival doubled from day 7; cited from earlier work.
A further test relates to hematopoiesis. Particulars: mouse, cyclophosphamide-induced neutropenia; cited from earlier work.

Chain of dipeptidyl peptidase-IV enzyme (DPP-4) (P27487 29-766): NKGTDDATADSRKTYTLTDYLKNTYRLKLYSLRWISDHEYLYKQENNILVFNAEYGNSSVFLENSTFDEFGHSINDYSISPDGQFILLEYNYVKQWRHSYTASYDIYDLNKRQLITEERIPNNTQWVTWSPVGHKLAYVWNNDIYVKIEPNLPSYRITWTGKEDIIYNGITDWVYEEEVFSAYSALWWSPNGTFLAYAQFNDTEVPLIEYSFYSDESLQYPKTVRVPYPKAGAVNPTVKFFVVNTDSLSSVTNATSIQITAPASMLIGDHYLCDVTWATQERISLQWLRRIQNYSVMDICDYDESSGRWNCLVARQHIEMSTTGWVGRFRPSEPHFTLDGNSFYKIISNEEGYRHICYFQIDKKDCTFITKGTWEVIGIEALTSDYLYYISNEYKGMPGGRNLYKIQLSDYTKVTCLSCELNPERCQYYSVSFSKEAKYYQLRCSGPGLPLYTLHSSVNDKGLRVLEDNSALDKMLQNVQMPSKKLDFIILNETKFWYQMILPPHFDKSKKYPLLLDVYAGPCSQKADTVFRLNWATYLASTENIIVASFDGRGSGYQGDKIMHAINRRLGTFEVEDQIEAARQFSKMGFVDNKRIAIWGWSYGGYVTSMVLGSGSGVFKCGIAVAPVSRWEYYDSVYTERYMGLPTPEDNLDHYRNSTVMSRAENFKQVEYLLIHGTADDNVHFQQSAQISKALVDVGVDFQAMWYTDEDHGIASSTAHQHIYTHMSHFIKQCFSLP
Chain of DPP-4 (P27487 39-766, species assumed): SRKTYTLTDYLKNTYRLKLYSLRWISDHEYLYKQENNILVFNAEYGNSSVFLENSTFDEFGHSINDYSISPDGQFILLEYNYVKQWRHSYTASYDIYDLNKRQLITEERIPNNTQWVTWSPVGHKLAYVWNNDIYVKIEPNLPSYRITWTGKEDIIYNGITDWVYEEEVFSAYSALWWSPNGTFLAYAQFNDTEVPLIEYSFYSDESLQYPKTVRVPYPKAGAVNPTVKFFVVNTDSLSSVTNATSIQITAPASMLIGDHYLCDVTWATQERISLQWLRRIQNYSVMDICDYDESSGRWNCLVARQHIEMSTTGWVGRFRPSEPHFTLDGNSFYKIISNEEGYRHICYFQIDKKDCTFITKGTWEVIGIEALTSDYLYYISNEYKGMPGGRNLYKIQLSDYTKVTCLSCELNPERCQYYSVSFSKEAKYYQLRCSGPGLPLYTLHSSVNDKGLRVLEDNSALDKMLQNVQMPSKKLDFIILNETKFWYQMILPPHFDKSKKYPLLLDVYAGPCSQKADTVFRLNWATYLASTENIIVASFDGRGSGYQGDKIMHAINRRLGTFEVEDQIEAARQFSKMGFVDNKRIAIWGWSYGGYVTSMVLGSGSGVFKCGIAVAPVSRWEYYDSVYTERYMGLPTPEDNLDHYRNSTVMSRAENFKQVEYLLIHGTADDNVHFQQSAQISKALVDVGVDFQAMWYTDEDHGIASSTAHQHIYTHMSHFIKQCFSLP

Consider `C[C@]1(N2Cc3cn(S(=O)(=O)NC(=O)OCc4ccccc4)nc3C2)CO[C@H](c2cc(F)ccc2F)[C@@H](N)C1` [Example 4], for which, in test [1], inhibition was half-maximal at 0.0088 µM (IC50).

For the compound `CC[C@H](C)[C@H](N)C(=O)N1CCC[C@H]1C(=O)N[C@H](C(=O)O)[C@@H](C)CC` [diprotin A], the “degradation of GRF to GRF[3-44] in plasma” value at DPP-4 was “prevented”.

Take `C[C@]1(N2Cc3cn(S(C)(=O)=O)nc3C2)CO[C@H](c2cc(F)ccc2F)[C@@H](N)C1` [Example 3]: the IC50 in test [1] worked out at 0.037 µM.

For the compound `CC(C)N1CCC(c2ccccc2)(c2ccccc2)CC1` [Prodipine, Pro-Pro-diphenyl-phosphonate], in the test with cardiac allograft, the cardiac allograft survival is recorded as 14 day.

Take `Cc1ccc(S(=O)(=O)N=S(C)(=O)n2cc3c(n2)CN([C@H]2CO[C@H](c4cc(F)ccc4F)[C@@H](N)C2)C3)cc1` (stereo partly drawn) [Example 1]: 0.0185 µM corresponded to half-maximal inhibition in test [1] (IC50).

As to `CC(C)[C@H](N)C(=O)N1CCC[C@H]1B(O)O` [Val-Boro-Pro], the hematopoiesis result with hematopoiesis is “stimulated hematopoiesis”.

For orientation: IC50 means the concentration that inhibits the measured activity by half. Lower therefore signals higher potency.
